Experimental data: patent EP0506565A1, “Use of 4,9,11-trienic steroids in compositions for turkeys” (ROUSSEL-UCLAF, priority 1991, dated 1992)

How the values were obtained:
[1] = Course of plasma transaminase levels in orally treated turkeys; assay type: in vivo, dinde; conditions: oral administration, compared with controls
[2] = Observation of locomotor behaviour of treated turkeys; assay type: in vivo, dinde; conditions: oral administration
[3] = Plasma residues of TBA in orally treated turkeys; assay type: in vivo, dinde; conditions: à 10, 12, 14, 16 et 18 semaines; oral administration
[4] = Biological test: trenbolone acetate given orally in the feed, weight gain and feed conversion index; assay type: in vivo, dinde femelle; parameters: GPM = Gain de poids cumulé: unit not given here
Text: L'essai a été effectué sur des dindes femelles âgées de 10 semaines.
Les animaux sont répartis en 2 groupes : • un groupe témoin de 37 animaux, • un groupe de 37 animaux recevant de l'acétate de trenbolone dans leur nourriture.
Les dindes reçoivent une quantité rationnée de nourriture renfermant l'acétate de trenbolone puis sont nourries ad libitum.
On calcule le poids moyen des dindes par pesée individuelle chaque semaine. On calcule le gain de poids moyen et l'indice de consommation c'est-à-dire (le poids total de nourriture que l'animal a reçu)/(gain de poids total) [formula]
Les résultats sont résumés dans le tableau ci-dessus, ainsi que dans les courbes jointes en annexe. • Courbe 1 : évolution pondérale des dindes femelles de 9 à 19 semaines. • Courbe 2 : évolution de la différence entre les indices de consommation cumulés témoins-traités. • Courbe 3 : évolution de la différence entre les gains de poids moyens des animaux traités par rapport aux animaux témoins.

[5] = administré par voie orale chez divers animaux notamment les bovins; cited from earlier work
[6] = 11ème semaine, 0,7 mg/Jour/dinde per os
[7] = 12ème semaine, 0,7 mg/Jour/dinde per os
[8] = 13ème semaine, 0,7 mg/Jour/dinde per os
[9] = 14ème semaine, 0,7 mg/Jour/dinde per os
[10] = 15ème semaine, 0,7 mg/Jour/dinde per os
[11] = 16ème semaine, 0,7 mg/Jour/dinde per os
[12] = 17ème semaine, 1,4 mg /jour/dinde per os
[13] = 18ème semaine, 1,4 mg /jour/dinde per os
[14] = 19éme semaine, 1,4 mg /jour/dinde per os

Q: Which results are given for `CC(=O)O[C@H]1CC[C@H]2[C@@H]3CCC4=CC(=O)CCC4=C3C=C[C@]12C` [acétate de trenbolone]?
A: évolution du taux des transaminases plasmatiques (GOT et GPT) [1]: n'est pas modifiée par rapport aux témoins; comportement locomoteur [2]: aucune anomalie; résidus plasmatiques de TBA [3]: inférieurs à la limite de dosage; % variation = % de l'augmentation de GPM des traités par rapport aux témoins [4, 6]: 12%; GPM = Gain de poids cumulé [4, 6]: 1606,1; I.C. = indice de consommation [4, 6]: 2,05; PM = poids moyen [4, 6]: 4967,6 grammes; % variation = % de l'augmentation de GPM des traités par rapport aux témoins [4, 7]: 18%; GPM = Gain de poids cumulé [4, 7]: 2303,7; I.C. = indice de consommation [4, 7]: 2,05; PM = poids moyen [4, 7]: 5665,2 grammes; % variation = % de l'augmentation de GPM des traités par rapport aux témoins [4, 8]: 12%; GPM = Gain de poids cumulé [4, 8]: 2907,2; I.C. = indice de consommation [4, 8]: 2,54; PM = poids moyen [4, 8]: 6268,7 grammes; % variation = % de l'augmentation de GPM des traités par rapport aux témoins [4, 9]: 10%; GPM = Gain de poids cumulé [4, 9]: 3839,4; I.C. = indice de consommation [4, 9]: 2,66; PM = poids moyen [4, 9]: 7200,9 grammes; % variation = % de l'augmentation de GPM des traités par rapport aux témoins [4, 10]: 7%; GPM = Gain de poids cumulé [4, 10]: 4463,6; I.C. = indice de consommation [4, 10]: 2,66; PM = poids moyen [4, 10]: 7825,1 grammes; % variation = % de l'augmentation de GPM des traités par rapport aux témoins [4, 11]: 8%; GPM = Gain de poids cumulé [4, 11]: 5258; I.C. = indice de consommation [4, 11]: 3,1; PM = poids moyen [4, 11]: 8619,6 grammes; % variation = % de l'augmentation de GPM des traités par rapport aux témoins [4, 12]: 9%; GPM = Gain de poids cumulé [4, 12]: 6008,1; I.C. = indice de consommation [4, 12]: 3,33; PM = poids moyen [4, 12]: 9369,7 grammes; % variation = % de l'augmentation de GPM des traités par rapport aux témoins [4, 13]: 11%; GPM = Gain de poids cumulé [4, 13]: 6651,2; I.C. = indice de consommation [4, 13]: 3,45; PM = poids moyen [4, 13]: 10012,8 grammes; % variation = % de l'augmentation de GPM des traités par rapport aux témoins [4, 14]: 11%; GPM = Gain de poids cumulé [4, 14]: 7197,8; I.C. = indice de consommation [4, 14]: 3,59; PM = poids moyen [4, 14]: 10559,4 grammes; activité [5]: relativement faible
